# Measurements: patent publication US20240400621A1, “PEPTIDES FOR METABOLIC SYNDROME” (ALPARIS, S.A. de C.V., priority 2021, published 2024)
# Like-named read-outs stand apart in the source and are kept apart here. Where no end group is shown, it is not given here.
# B1: protein of SEQ ID NO: 1 (AMUC_1100 of Akkermansia muciniphila without signal peptide, with Xa factor site and histidine tag) (ligand)
# chain: MIVNSKRSELDKKISIAAKEIKSANAAEITPSRSSNEELEKELNRYAKAVGSLETAYKPFLASSALVPTTPTAFQNELKTFRDSLISSCKKKNILITDTSSWLGFQVYSTQAPSVQAASTLGFELKAINSLVNKLAECGLSKFIKVYRPQLPIETPANNPEESDEADQAPWTPMPLEIAFQGDRESVLKAMNAITGMQDYLFTVNSIRIRNERMMPPPIANPAAAKPAAAQPATGAASLTPADEAAAPAAPAIQQVIKPYMGKEQVFVQVSLNLVHFNQPKAQEPSEDIEGRHHHHHHDI
# B2: peptide SEQ ID NO: 4 (amino terminal domain of SEQ ID NO: 1) (peptide)
# chain: IVNSKRSELDKKISIAAKEIKSANAAEITPSRSSNEELEKELNRYAKAVGSLETAYKPFLASSALVPTTPTAFQNELKTFRDSLISSCKKKNILITDTSSWLGFQVYSTQAPSVQAASTLGFELKAINSLVNKLAECGLSKFIKVYRPQ
# How the values were obtained:
# mice fed a high-fat diet [1] = assay: Insulin resistance test (PRI) in mice fed a high-fat diet; format: in vivo, mice (C57BL/6JN); conditions: 12 weeks; intragastric daily; SEQ ID NO: 3 2.5 μg/mouse, SEQ ID NO: 2 0.6 or 0.2 μg/mouse
# Experimental: (§1) For all the in vivo testing, male mice of the C57BL/6JN strain between 8 to 10 weeks of age were used, housed in groups of 3 to 5 mice per cage with food and water ad libitum in ventilated racks, and whose microbiota were unified for 4 weeks.
# (§2) The mice received either 200 μL of a phosphate buffer solution (PBS) at pH 7.5 (as a vehicle), or 200 μL of the PBS solution, with each of the intragastric treatments daily for 12 weeks. They were fed either a Normal Diet (DN, Harlan, Teklad 2018SX) with 18% of the calories coming from fat, or a High-Fat Diet (DAG, Research Diets, D12491), with 60% of the calories coming from fat. […]
# The mice were subjected to fasting for 6 hours and the baseline glucose values were determined, as described above. Subsequently, the mice received an intraperitoneal injection of 1 mU of insulin per gram of body weight, and blood glucose values were recorded at 15, 30, 60, and 120 minutes after administration. The area under the curve (AUC) of the insulin resistance test was calculated considering the glucose decrease between time T0 and T15 using the absolute glucose values, as shown in FIGS. 20A and 20B.
# adiponectin = assay: Adiponectin levels in mice fed a high-fat diet; format: in vivo, mice (C57BL/6JN); conditions: 12 weeks; fall induced by DAG
# Experimental: as §1
# (§3) The mice received either 200 μL of a phosphate buffer solution (PBS) at pH 7.5 (as a vehicle), or 200 μL of the PBS solution, with each of the intragastric treatments daily for 12 weeks. They were fed either a Normal Diet (DN, Harlan, Teklad 2018SX) with 18% of the calories coming from fat, or a High-Fat Diet (DAG, Research Diets, D12491), with 60% of the calories coming from fat.
# (§4) All the mice were randomly divided into five experimental groups in order to study the effect of SEQ ID NO: 3 and SEQ ID NO: 2 correctly: • Group 1—Mice with DN that received 200 μl of PBS intragastrically. • Group 2—Mice with DAG that received 200 μl of PBS intragastrically. • Group 3—Mice with DAG that received 200 μl of PBS with SEQ ID NO: 3 intragastrically at a dose of: 2.5 μg/mouse. • Group 4—Mice with DAG that received 200 μl of PBS with SEQ ID NO: 2 intragastrically at a dose of 0.6 μg/mouse (high dose). • Group 5—Mice with DAG that received 200 μl of PBS with SEQ ID NO: 2 intragastrically at a dose of 0.2 μg/mouse (low dose). […]
# IL-1B = assay: Circulating IL-1B levels in mice fed a high-fat diet; format: in vivo, mice (C57BL/6JN); conditions: 12 weeks; versus DAG; including SEQ ID NO: 2 at low doses
# Experimental: as §1, §2
# (§5) To determine the effect of the peptides SEQ ID NO: 2 and SEQ ID NO: 3 in attenuating the inflammatory process in adipose tissue, the cellular infiltrate of the adipose tissue of the mice was quantified after they had been fed DAG.
# insulin = assay: Insulin levels (secretion in response to glucose) in mice fed a high-fat diet; format: in vivo, mice (C57BL/6JN); conditions: 12 weeks; versus DAG group
# Experimental: as §1, §3
# (§6) All the mice were randomly divided into five experimental groups in order to study the effect of SEQ ID NO: 3 and SEQ ID NO: 2 correctly: • Group 1—Mice with DN that received 200 μl of PBS intragastrically. • Group 2—Mice with DAG that received 200 μl of PBS intragastrically. • Group 3—Mice with DAG that received 200 μl of PBS with SEQ ID NO: 3 intragastrically at a dose of: 2.5 μg/mouse. • Group 4—Mice with DAG that received 200 μl of PBS with SEQ ID NO: 2 intragastrically at a dose of 0.6 μg/mouse (high dose). • Group 5—Mice with DAG that received 200 μl of PBS with SEQ ID NO: 2 intragastrically at a dose of 0.2 μg/mouse (low dose).
# This means that the peptide SEQ ID NO: 3 improves insulin sensitivity, preventing insulin resistance from developing.
# IL-6 = IL-6 levels in mice fed a high-fat diet; format: in vivo, mice (C57BL/6JN); conditions: 12 weeks; animals fed DAG
# Experimental: as §1, §3, §6
# [2] = Body weight of mice on high-fat diet (DAG) with intragastric peptide for 12 weeks; format: in vivo, mice (C57BL/6JN)
# Experimental: as §1, §3, §6
# The animal weights and feed intakes were recorded weekly.
# To determine the metabolic status of the animals before starting the experiment, weight, basal glucose levels, glucose tolerance, and insulin resistance were recorded.
# TNFα = assay: Circulating TNFα levels in mice fed a high-fat diet; format: in vivo, mice (C57BL/6JN); conditions: 12 weeks; versus DAG; including SEQ ID NO: 2 at low doses
# Experimental: as §1, §2, §5
# hTLR2 = target: T1, hTLR2 (Homo sapiens, UniProt O60603); assay: hTLR2 stimulation in HEK-Blue hTLR2 cells (NF-κβ/SEAP reporter, QUANTI-Blue); format: cell-based
# T1 construct: expressed in transfected cells; host or cells: HEK-Blue hTLR2 cells
# Experimental: The analysis of the biological activity of the protein of SEQ ID NO. 1 was performed via an in vitro Toll-like receptors (TLRs) recognition assay. The HEK-Blue hTLR2 cell line expressing the hTLR2 receptor was used, whose stimulation activates the NF-Kβ factor, which in turn induces the production of the reporter protein, secreted embryonic alkaline phosphatase (SEAP). The SEAP levels are quantified by a colorimetric method with the reagent QUANTI-Blue and correspond to hTLR2 stimulation levels. The HEK-Blue hTLR2 cell line was thawed and propagated to make a master cell bank. From this bank, a vial was thawed to check the correct growth of the cell line and the absence of mycoplasma contamination. The cells of the thawed vial were propagated to make a working cell bank and continue the subcultures to mount the activity assay of SEQ ID NO. 1. This consisted of a series of tests in which the cellular response was evaluated with different molecules to determine the most suitable conditions for the assay.
# The determined EC50 for SEQ ID NO. 1 was 1147±211 ng/ml (35.1±6.4 nM).
# The in vitro biological activity of SEQ ID NO:2, SEQ ID NO:3, SEQ ID NO:4, SEQ ID NO: 8, SEQ ID NO:9, SEQ ID NO: 10, SEQ ID NO:11, SEQ ID NO: 12, SEQ ID NO: 13, SEQ ID NO: 14, SEQ ID NO: 15, and SEQ ID NO:16 was tested via the stimulation of hTLR2 in the cultures of HEK-Blue hTLR2 cells in 96-well plates for 24 h. After collecting the supernatant, the plate was incubated with QUANTI-Blue at 37° C. for 1 h, and absorbance was measured at 620 nm.
# To determine the EC50, the absorbance was plotted against the logarithm of protein concentration, and the data was adjusted to a dose-response sigmoidal ligand binding model with 4 parameters. The cell culture medium was used as a negative control, and PAM (synthetic triacylated lipopeptide (Pam3CSK4)) was used as a positive control.
# leptin = assay: Leptin levels in mice fed a high-fat diet; format: in vivo, mice (C57BL/6JN); conditions: 12 weeks; compared to mice fed only DAG
# Experimental: as §1, §3, §4
# mice fed a high-fat diet [3] = assay: Glucose tolerance test (GTT) in mice fed a high-fat diet; format: in vivo, mice (C57BL/6JN); conditions: 12 weeks; intragastric daily; SEQ ID NO: 3 2.5 μg/mouse, SEQ ID NO: 2 0.6 or 0.2 μg/mouse
# Experimental: as §1, §2
# The mice were subjected to fasting for 6 hours, and the baseline glucose values in the blood were determined using glucose test strips and a glucometer (Roche's ACCU-CHECK ACTIVE).
# Next, the mice received an intraperitoneal injection of 1.8 mg of glucose per gram of body weight, and the blood glucose values were recorded at 15, 30, 60, and 120 minutes after administration.
# FIGS. 19A and 19B show the area under the curve (AUC) of the glucose tolerance test of the mice, measured at week 0 and 12.
# adipose tissue = assay: Cellular infiltrate / inflammatory process in adipose tissue of mice fed a high-fat diet; format: in vivo, mice (C57BL/6JN)
# Experimental: as §1, §3, §6, §5
# [4] = target: T2, human Toll-like receptor 2 (hTLR2) on HEK-Blue hTLR2 cells (human (printed as hTLR2), UniProt O60603 21-784); assay: cell-based or functional assay
# [5] = Aggregation during ultrafiltration / buffer change; format: physicochemical
# From the text: The protein of SEQ ID NO. 1, expressed in recombinant form in this invention, contains a tag of six residues of histidine at the carboxyl terminal end, allowing it to be purified by immobilized metal cation affinity chromatography (IMAC). Purification was initially evaluated with the soluble fractions of the two strains that were used for recombinant production, obtained by enzymatic lysis and sonication. The first approach with the Ni-NTA Agarose resin allowed for the recovery of 6% of the SEQ ID NO. 1 with a purity of 50-80%. An FPLC Ákta Prime chromatographic system and an XK16/20 column packed with 13 mL of Chelating Sepharose Fast Flow-Ni^+2 resin were used for purification. A minimum imidazole concentration of 30 mM was defined in both the sample to be injected and the equilibrium buffer. Elution was performed with 500 mM imidazole at 6.5 mL/min, resulting in a minimum recovery of 80% of SEQ ID No. 1 with 82% purity. The ultrafiltration of the tangential flow of SEQ ID NO. 1 during the chromatography stage, in order to concentrate and change the buffer, negatively impacted protein quality. However, the dialysis of EQ ID NO.
# However, the aggregation of SEQ ID NO. […] This was corroborated by the SDSPAGE analysis, in which the remaining protein in the soluble fraction presented fragments of lower molecular weight than that of SEQ ID NO. 1, but greater than 25 kDa. On the other hand, the precipitate turned out to be denatured SEQ ID NO. 1, but not degraded.
# Finally, SEQ ID NO. 4 and SEQ ID NO.
# [6] = target: T2, human Toll-like receptor 2 (hTLR2) on …; assay: cell-based or functional assay; remark: listed apart in the source
# T1 sequence (O60603 21-784): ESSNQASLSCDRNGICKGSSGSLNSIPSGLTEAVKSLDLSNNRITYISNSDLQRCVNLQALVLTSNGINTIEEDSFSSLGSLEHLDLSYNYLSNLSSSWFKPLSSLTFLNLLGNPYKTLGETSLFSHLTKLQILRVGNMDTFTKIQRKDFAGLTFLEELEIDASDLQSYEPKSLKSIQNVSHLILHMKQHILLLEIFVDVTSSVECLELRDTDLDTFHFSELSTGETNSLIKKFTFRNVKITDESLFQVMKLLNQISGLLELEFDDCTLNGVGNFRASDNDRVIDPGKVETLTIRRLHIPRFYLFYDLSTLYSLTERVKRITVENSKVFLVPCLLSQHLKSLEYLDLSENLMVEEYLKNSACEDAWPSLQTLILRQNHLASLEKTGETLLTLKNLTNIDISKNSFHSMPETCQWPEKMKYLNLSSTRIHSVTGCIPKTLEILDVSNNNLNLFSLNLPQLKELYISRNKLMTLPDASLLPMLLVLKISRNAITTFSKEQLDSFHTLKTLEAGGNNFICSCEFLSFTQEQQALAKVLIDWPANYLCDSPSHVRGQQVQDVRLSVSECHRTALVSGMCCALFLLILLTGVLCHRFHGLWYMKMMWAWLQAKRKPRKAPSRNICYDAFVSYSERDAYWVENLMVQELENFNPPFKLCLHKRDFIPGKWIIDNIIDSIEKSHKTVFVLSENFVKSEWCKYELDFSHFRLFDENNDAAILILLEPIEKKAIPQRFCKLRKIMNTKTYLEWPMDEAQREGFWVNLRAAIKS
# T2 sequence (O60603 21-784): as above
molecule,measurement,setting,value
AMNAITGMQDYLFTVNSIRIRNERMMPPPIANPAAAK [SEQ ID NO: 2],insulin sensitivity (AUC of insulin resistance test) versus DAG group,mice fed a high-fat diet [1],improve insulin sensitivity
same,adiponectin in circulation,adiponectin,tendency to prevent a fall of adiponectin
same,circulating levels of IL-1B,IL-1B,prevented the increase in the circulating levels of IL-1B
same,insulin secretion in response to glucose administration,insulin,tendency to decrease insulin secretion
same,IL-6 levels,IL-6,dramatic decrease in IL-6 levels
same,Average weight,"[2]; 0 weeks (initial state), DAG + SEQ ID NO: 2 High dose group",23.9 grams
same,Average weight,"[2]; 0 weeks (initial state), DAG + SEQ ID NO: 2 Low dose group",23.8 grams
same,Average weight,"[2]; 12 weeks, DAG + SEQ ID NO: 2 High dose (0.6 μg/mouse) intragastric daily",42 grams
same,Average weight,"[2]; 12 weeks, DAG + SEQ ID NO: 2 Low dose (0.2 μg/mouse) intragastric daily",40.2 grams
same,circulating levels of TNFα,TNFα,prevented the increase in the circulating levels
same,concentration from which hTLR2 is (significantly) stimulated,"hTLR2; HEK-Blue hTLR2 cells, 24 h",3.05 nM
same,concentration giving the best hTLR2 stimulation,"hTLR2; HEK-Blue hTLR2 cells, 24 h",305 nM
same,leptin secretion,leptin,decrease in leptin secretion
same,glucose tolerance (AUC of GTT) versus DAG group,mice fed a high-fat diet [3],improved glucose tolerance
same,cellular infiltrate of adipose tissue,"adipose tissue; 12 weeks, versus DAG group",prevented the increase in cellular infiltrate induced by DAG
same,inflammatory process in adipose tissue,adipose tissue; SEQ ID NO:2 in high or low doses,attenuate the inflammatory process in adipose tissue
"SEQ ID NO: 16: peptide of the Lys-C proteolysate, retained at the 10 kDa cutoff (EQVFVQVSLNLVHFNQPK)",stimulation of hTLR2,hTLR2,do not stimulate hTLR2
"SEQ ID NO: 14: peptide of the Lys-C proteolysate, passes the 5 kDa ultrafiltration membrane (PYMGK)",stimulation of hTLR2,hTLR2,do not stimulate hTLR2
"SEQ ID NO: 12: peptide generated by proteolysis, obtained with both trypsin and Lys-C (MQLPIETPANNPEESDEADQAPWTPMPLEIAFQGDRESVLK)",stimulation of hTLR2,hTLR2,do not stimulate hTLR2
B1,EC50,[4],35.1 nM
same,aggregation in ultrafiltration operations,[5],aggregation
same,EC50,[6],1.15 µg/mL
same,relative activation of NF-κβ,"hTLR2; 10 μg/mL, 24 h stimulation of hTLR2, 60 min QUANTI-Blue, with respect to the culture medium",16.6%±2.7
AMNAITGMQDYLFTVNSIRIRNERMMPPPIANPAAAK [peptide SEQ ID NO: 2],EC50,[4],24.9 nM
B2,EC50,[4],65.9 nM
same,aggregation in ultrafiltration operations,[5],no visible aggregation
same,concentration from which hTLR2 is (significantly) stimulated,"hTLR2; HEK-Blue hTLR2 cells, 24 h",38 nM
same,relative response compared to PAM,hTLR2; maximum concentration tested (305 nM),101%
